Data reported in patent US20240174727A1, “LONG-ACTING NATRIURETIC PEPTIDES AND USES THEREOF” (Eli Lilly and Company, priority 2022, published 2024).
Where “and” joins values, the source holds several entries; their conditions need not be identical. Equal entries are not always repeated. Blank lines part the entries; values can stand above or below the compound they belong to.

Experiments:
SAUNA Mouse Model = assay: Salty drinking water/Unilateral Nephrectomy/Aldosterone (SAUNA) mouse model of heart failure; format: in vivo, male C57BL/6N mice; settings: SAUNA mice, once daily SC 0.4 mg/kg
Text: The effect of Exemplary ANP polypeptides is investigated in the Salty drinking water/Unilateral Nephrectomy/Aldosterone (SAUNA) Mouse Model, murine model of heart failure induced by chronic aldosterone infusion. After acclimation for approximately 2 weeks, heart failure is induced in male C57BL/6N (Taconic) mice by uninephrectomy, continuous d-aldosterone infusion and 1.0% sodium chloride in drinking water for 4 weeks (Tanaka et al., 2016; Valero-Munoz, Li, Wilson, Boldbaatar, et al., 2016; Valero-Munoz, Li, Wilson, Hulsmans, et al., 2016; Yang, Kong, Shuai, Zhang, & Huang, 2020; Yoon et al., 2021). […] The pressure volume (PV) catheter is introduced into the left ventricle via apical stab with a 27G needle. Calibration of the PV catheter is performed according to the manufacturer's instructions. Data are analyzed with LabChart pro software (AD Instruments). After PV loop measurements, mice are sacrificed, and ratio of heart weight to tibia length is used for indicator of hypertrophy.

rat NPRA = molecular target: T1, rat NPRA (Rattus norvegicus, UniProt P18910); assay: Rat NPRA cGMP activity assay (HTRF) in HEK293 cells overexpressing NPRA; format: cell-based; settings: assay buffer with 0.1% casein, read-out: cGMP Assay (EC50, pM) w/Casein rNPRA
T1 construct: Full-Length cDNA Cloning and Generation of Cell Lines Overexpressing Natriuretic Peptide Receptors (NPRs); expressed in transfected cells; host or cells: Jump-in T-Rex HEK293 cells, pJTI R4 CMV-TO MCS pA vector, tetracycline induction
T1 sequence (P18910 29-1057): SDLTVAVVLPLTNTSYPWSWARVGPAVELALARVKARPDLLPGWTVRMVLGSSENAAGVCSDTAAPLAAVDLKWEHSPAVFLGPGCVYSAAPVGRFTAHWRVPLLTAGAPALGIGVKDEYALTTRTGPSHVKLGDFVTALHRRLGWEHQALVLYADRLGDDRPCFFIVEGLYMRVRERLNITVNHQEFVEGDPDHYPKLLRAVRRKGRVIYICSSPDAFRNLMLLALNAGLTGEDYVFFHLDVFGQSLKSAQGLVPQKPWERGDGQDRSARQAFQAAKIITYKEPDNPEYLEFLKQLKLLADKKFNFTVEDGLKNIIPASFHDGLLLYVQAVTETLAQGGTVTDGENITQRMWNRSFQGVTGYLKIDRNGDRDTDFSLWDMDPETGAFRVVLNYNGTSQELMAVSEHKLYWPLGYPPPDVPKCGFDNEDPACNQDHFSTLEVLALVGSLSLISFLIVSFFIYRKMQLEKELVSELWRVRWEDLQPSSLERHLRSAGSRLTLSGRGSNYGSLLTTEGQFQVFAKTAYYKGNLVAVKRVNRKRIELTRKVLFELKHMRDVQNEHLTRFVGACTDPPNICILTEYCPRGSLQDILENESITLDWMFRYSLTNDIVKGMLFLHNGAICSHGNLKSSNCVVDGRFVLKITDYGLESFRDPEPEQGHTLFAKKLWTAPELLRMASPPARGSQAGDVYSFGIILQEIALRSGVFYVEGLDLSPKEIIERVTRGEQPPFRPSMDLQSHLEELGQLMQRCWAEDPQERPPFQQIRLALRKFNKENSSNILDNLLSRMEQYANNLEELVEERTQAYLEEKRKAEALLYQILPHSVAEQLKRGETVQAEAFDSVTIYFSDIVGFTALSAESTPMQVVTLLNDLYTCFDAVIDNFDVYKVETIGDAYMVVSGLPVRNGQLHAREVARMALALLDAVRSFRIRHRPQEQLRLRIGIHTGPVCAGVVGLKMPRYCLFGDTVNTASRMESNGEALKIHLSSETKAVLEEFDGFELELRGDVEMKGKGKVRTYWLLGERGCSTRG
Summary of the method: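 Tetracycline-induced (300 ng/mL, 48 h) T-Rex HEK293 cells expressing NPRA, 4000 cells/well, treated 40 min at room temperature with polypeptide (8 points, 10 μM to 1 pM) in HBSS/HEPES buffer with 0.5 mM IBMX, pH 7.4. cGMP by HTRF, normalised to 100 nM amidated rat ANP and buffer.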

[1] = Pharmacokinetics in male Sprague Dawley rats; format: in vivo; settings: rat, sc, mean, single subcutaneous administration of 200 nMol/kg, plasma
Description: The pharmacokinetics of the exemplary analogs are evaluated following a single subcutaneous administration of […] to male Sprague Dawley rats. Blood samples are collected over 120 hours, and resulting individual plasma concentrations are used to calculate pharmacokinetic parameters. Peptide plasma (K3 EDTA) concentrations are determined using a qualified LC/MS method that measured the intact mass of the ANP polypeptide. Each peptide and an analog as an internal standard are extracted from 100% specie specified plasma using methanol with 0.1% formic acid. A Thermo Q-Exactive, High Resolution Instrument, and a Thermo Easy Spray PepMap are combined for LC/MS detection.

[2] = molecular target: human NPRB (natriuretic peptide receptor B) (human) (UniProt P20594); assay: cell-based or functional assay
human NPRB (natriuretic peptide receptor B) (human), sequence (P20594 23-1047): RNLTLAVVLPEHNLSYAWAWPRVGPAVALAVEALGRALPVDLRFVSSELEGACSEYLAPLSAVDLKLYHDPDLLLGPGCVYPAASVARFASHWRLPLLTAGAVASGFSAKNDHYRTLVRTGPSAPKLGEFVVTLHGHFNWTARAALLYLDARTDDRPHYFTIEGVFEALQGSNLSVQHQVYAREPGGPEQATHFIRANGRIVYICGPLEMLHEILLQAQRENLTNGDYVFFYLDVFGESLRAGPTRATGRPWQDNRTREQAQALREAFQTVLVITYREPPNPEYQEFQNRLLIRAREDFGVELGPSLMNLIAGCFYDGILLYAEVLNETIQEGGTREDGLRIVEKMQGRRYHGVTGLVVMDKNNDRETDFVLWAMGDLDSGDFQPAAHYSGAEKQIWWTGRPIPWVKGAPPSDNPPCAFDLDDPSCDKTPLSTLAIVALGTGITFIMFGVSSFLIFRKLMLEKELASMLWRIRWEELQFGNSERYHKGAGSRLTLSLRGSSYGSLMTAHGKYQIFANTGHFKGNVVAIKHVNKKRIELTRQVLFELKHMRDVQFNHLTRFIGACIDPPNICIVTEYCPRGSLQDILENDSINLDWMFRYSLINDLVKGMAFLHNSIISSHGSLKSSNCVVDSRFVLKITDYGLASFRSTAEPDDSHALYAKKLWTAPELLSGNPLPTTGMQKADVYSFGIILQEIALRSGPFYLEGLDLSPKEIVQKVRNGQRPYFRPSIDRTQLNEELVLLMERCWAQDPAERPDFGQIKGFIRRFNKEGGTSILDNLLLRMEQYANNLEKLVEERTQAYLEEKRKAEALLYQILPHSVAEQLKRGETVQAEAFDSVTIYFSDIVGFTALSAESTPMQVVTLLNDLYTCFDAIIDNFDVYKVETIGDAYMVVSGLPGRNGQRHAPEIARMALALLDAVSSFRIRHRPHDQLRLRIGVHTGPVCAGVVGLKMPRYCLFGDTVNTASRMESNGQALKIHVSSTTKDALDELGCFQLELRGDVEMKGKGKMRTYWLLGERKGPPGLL

[3] = molecular target: rat NPRB (natriuretic peptide receptor B) (rat) (UniProt P16067); assay: cell-based or functional assay
rat NPRB (natriuretic peptide receptor B) (rat), sequence (P16067 17-1047): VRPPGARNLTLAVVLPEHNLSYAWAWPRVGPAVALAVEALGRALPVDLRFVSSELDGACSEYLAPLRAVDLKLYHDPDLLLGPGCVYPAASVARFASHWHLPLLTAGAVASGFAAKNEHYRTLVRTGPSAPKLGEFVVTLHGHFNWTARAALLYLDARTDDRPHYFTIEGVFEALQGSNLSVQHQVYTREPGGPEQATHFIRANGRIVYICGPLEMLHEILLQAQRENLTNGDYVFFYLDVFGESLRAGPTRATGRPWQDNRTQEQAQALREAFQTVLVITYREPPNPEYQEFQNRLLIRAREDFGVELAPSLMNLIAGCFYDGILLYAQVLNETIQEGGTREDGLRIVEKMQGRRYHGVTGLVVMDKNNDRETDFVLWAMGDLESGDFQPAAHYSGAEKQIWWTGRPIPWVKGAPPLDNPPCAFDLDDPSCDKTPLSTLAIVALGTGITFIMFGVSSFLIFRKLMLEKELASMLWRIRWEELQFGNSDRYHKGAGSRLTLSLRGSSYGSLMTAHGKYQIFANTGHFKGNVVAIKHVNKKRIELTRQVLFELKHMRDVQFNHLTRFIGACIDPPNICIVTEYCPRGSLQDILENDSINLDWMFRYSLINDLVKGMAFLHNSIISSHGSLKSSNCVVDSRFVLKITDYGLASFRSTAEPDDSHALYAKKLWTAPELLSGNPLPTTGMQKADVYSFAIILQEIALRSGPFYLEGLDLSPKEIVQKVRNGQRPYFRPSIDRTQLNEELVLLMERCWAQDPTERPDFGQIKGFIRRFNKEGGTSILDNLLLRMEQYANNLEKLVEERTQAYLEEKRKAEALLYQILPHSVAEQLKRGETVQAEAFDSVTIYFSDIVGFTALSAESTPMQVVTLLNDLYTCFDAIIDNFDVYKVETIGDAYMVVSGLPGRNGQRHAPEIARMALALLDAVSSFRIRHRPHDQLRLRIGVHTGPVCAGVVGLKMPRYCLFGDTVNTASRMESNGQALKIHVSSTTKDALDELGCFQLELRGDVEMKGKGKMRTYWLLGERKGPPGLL

human NPRA (human) = human NPRA (human) (UniProt P16066); assay: cell-based or functional assay
human NPRA (human), sequence (P16066 33-1061): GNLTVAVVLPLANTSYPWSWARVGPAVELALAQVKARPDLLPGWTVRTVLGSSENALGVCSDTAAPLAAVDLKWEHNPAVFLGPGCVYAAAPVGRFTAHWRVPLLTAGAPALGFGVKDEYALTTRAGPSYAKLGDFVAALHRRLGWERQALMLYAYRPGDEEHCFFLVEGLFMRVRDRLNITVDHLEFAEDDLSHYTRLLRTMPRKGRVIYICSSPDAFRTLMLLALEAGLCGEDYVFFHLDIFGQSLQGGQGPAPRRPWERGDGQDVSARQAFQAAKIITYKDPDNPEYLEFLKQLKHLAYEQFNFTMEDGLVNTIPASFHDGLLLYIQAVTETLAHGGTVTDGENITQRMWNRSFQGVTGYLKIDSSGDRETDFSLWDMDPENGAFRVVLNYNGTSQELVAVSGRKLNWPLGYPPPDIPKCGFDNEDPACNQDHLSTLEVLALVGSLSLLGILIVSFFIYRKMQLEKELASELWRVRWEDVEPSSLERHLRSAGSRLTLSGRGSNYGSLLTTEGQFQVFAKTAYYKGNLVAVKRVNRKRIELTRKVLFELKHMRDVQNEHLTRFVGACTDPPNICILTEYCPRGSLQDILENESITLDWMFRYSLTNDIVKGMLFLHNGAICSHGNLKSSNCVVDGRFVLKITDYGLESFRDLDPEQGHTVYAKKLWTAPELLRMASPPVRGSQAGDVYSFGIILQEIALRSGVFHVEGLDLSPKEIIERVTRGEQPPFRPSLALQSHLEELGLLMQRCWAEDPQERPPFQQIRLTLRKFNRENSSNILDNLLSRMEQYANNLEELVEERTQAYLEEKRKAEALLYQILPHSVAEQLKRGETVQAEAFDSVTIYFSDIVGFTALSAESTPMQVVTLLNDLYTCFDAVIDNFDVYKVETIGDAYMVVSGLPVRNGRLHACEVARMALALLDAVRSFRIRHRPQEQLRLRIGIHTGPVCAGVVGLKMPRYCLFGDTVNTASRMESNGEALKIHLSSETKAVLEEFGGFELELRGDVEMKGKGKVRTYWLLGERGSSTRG

Compound: CC[C@H](C)[C@@H]1NC(=O)[C@H](CCCNC(=N)N)NC(=O)[C@H](CC(=O)O)NC(=O)[C@H]([C@@H](C)CC)NC(=O)[C@H](CCCNC(=N)N)NC(=O)CNC(=O)CNC(=O)[C@H](Cc2ccccc2)NC(=O)[C@@H](NC(=O)[C@H](CO)NC(=O)[C@H](CO)NC(=O)[C@H](CCCNC(=N)N)NC(=O)[C@H](CCCNC(=N)N)NC(=O)[C@H](CC(C)C)NC(=O)[C@H](CO)NC(=O)CNC(=O)[C@H](CCCCN)NC(=O)[C@H](CCC(=O)O)NC(=O)[C@H](CCCCN)NC(=O)[C@H](CCC(=O)O)NC(=O)[C@H](CCCCN)NC(=O)[C@H](CCC(=O)O)NC(=O)CC[C@H](NC(=O)CCCCCCCCCCCCCCCCCCC(=O)O)C(=O)O)CSSC[C@@H](C(=O)N[C@@H](CC(N)=O)C(=O)N[C@@H](CO)C(=O)N[C@@H](Cc2ccccc2)C(=O)N[C@@H](CCCNC(=N)N)C(=O)N[C@@H](Cc2ccc(O)cc2)C(N)=O)NC(=O)CNC(=O)[C@H](CC(C)C)NC(=O)CNC(=O)[C@H](CO)NC(=O)[C@H](CCC(N)=O)NC(=O)[C@H](C)NC(=O)CNC1=O [Example 8]
blood pressure (SAUNA Mouse Model): decrease in blood pressure
left ventricle diastolic pressure (SAUNA Mouse Model; PV catheter): reduced left ventricle diastolic pressure
heart weight and tibia length (SAUNA Mouse Model; indicator of hypertrophy): decrease
EC50 (rat NPRA): 493 pM
CL/F [1]: 0.698 mL/min/kg
half-life ([1]; read-out: t½ (converted)): 15 h

cGMP production (HTRF) in HEK293 cells overexpressing NPRB; concentration that defines the 100% response [2]: 1 µM
cGMP production (HTRF) in HEK293 cells overexpressing NPRB; concentration that defines the 100% response [3]: 1 µM
Compound: human CNP-22 (from UniProt P23582 105-126) (peptide)

cGMP Assay (EC50, pM) w/BSA, hNPRA (human NPRA (human)): 2960 pM and 1270 pM
cGMP Assay (EC50, pM) w/Casein, hNPRA (human NPRA (human)): 1010 pM and 669 pM
Compound: HOOC-(CH2)18-CO-(γGlu)-EKEKEKG-PEG24-EK-βAla-RSS[…]PSFRHGGP-NH2 (peptide)
